{"source": "paper PMC8840081", "about": "“Phenylalanine-Based AMPA Receptor Antagonist as the Anticonvulsant Agent with Neuroprotective Activity—In Vitro and In Vivo Studies” (Molecules, 2022)", "key": {"[1]": {"test_system": "IMR-32 neuroblastoma cells", "test": "neuroprotection against 6-OHDA-induced LDH release", "assay_type": "cell-based, human", "conditions": "IMR-32, compound 50 µM, 1 h pretreatment, 200 µM 6-OHDA, 24 h", "procedure": "(§1) All cell culture protocols and assay conditions were applied as we reported previously. SH-SY5Y (ATCC® CRL-2266™) cell line was purchased from ATCC (Manassas, VA, USA). IMR-32 (ATCC® CCL-127™) cell line was kindly provided by the Department of Oncogenomics, Academisch Medisch Centrum, Amsterdam, Holland. Before each test SH-SY5Y or IMR-32 cells were seeded in 96-well plates with transparent bottom at a concentration of 2.5 × 10^4 cells/well in 100 μL of respective cell culture medium and cultured for 24 h to reach 70% confluence. • Cell Viability\n(§2) CytoTox-ONE™ Homogeneous Membrane Integrity Assay, which based on the LDH release, was purchased from Promega (Madison, WI, USA). SH-SY5Y or IMR-32 cells were seeded in 96-well white plates with transparent bottom. For neuroprotective studies, the cells were preincubated first for 1 h with compound 1, 8 or reference antioxidants AA, TX (all at the concentration of 50 μM) and next the neurotoxin 6-OHDA (Sigma-Aldrich, Inc., St. Louis, MO, USA) was added at final concentration of 50 μM (SH-SY5Y assay) or 200 µM (IMR-32 assay). After 24 h of incubation, the CytoTox-ONE™ was added to each well and the cells were incubated next for 10 min at room temperature. The fluorescence was measured using a microplate reader EnSpire (PerkinElmer, Waltham, MA, USA) with an excitation wavelength of 560 nm and an emission wavelength of 590 nm. All measurements were performed in triplicate and results are shown as mean ± SD. The similar studies were also performed with SH-SY5Y cells injured by 100 μM of 6-OHDA (Figure S1, Supporting Materials). • ROS Assay"}, "[2]": {"test_system": "SH-SY5Y neuroblastoma cells", "test": "neuroprotection against 6-OHDA-induced LDH release", "assay_type": "cell-based, human", "conditions": "compound 50 µM", "procedure": "as §1, §2"}, "[3]": {"test": "ferric reducing antioxidant power (FRAP) assay", "conditions": "% of ascorbic acid activity; compounds and AA at 1 mM", "procedure": "The total antioxidant potential of aryl-substituted phenylalanine derivatives was determined using FRAP assay. The FRAP reagent was prepared first by mixing acetate buffer (300 mM, pH 3.6), a solution of 10 mM TPTZ (2,4,6-tripyridyl-s-triazine, Sigma-Aldrich, Inc., St. Louis, MO, USA) in 40 mM HCl and 20 mM of iron (III) chloride hexahydrate (FeCl3 × 6H2O, Chempur, Piekary Śląskie, Poland) at 10:1:1 (v/v/v). The FRAP reagent (190 μL) and 1 mM of tested compound (10 μL) was added next to each well, mixed and incubated for 30 min. The absorbance was measured using a microplate reader EnSpire (PerkinElmer, Waltham, MA USA) at 593 nm. AA (1 mM, AMARA, Kraków, Poland) was used as the reference antioxidant. The results were expressed as % of ascorbic acid activity (%AAA). Analyses were performed in triplicate. • ORAC-FL"}, "[4]": {"test_system": "SH-SY5Y cells", "test": "ROS assay (DCFH-DA), H2O2-induced ROS accumulation", "assay_type": "cell-based, human", "conditions": "compound 50 µM, 500 µM H2O2, 3 h", "procedure": "as §1\nDuring this assay SH-SY5Y cells were preincubated first for 1 h with 250 μM solution of DCFH-DA (Sigma-Aldrich, Inc., St. Louis, MO, USA) in HBSS buffer. After DCFH-DA was removed, cells were washed with HBSS and incubated next for 1 h with 50 μM of compound 1 or 8. Next, the H2O2 was added at final concentration 500 μM. After 3 h of incubation, the fluorescence was measured using a microplate reader EnSpire (PerkinElmer, Waltham, MA, USA) with an excitation wavelength of 486 nm and emission wavelength of 530 nm. All measurements were performed in triplicate and results are shown as mean ± SD."}, "[5]": {"molecular_target": "T1, Human MAO-B (Homo sapiens, UniProt P27338)", "T1 construct": "purchased Merck KGaA (Darmstadt, Germany)", "T1 sequence (P27338 1-520)": "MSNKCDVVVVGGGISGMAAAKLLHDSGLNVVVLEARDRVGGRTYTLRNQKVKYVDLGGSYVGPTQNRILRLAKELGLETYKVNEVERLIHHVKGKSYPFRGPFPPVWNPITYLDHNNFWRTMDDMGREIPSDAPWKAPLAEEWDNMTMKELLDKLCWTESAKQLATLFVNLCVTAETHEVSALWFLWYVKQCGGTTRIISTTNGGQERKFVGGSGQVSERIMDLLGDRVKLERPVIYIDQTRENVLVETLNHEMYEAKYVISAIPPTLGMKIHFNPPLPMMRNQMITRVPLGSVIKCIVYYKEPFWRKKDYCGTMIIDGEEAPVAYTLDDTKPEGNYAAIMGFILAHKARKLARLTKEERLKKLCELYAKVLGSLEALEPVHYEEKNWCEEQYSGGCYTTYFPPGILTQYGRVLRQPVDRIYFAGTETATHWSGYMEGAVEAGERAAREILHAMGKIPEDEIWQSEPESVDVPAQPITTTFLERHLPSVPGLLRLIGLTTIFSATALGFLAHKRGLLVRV", "test": "MAO-B inhibition, Amplex Red Monoamine Oxidase kit", "assay_type": "biochemical", "conditions": "1 µM compound; % of full inhibition (pargyline 10 µM)", "procedure": "Human MAO-B was purchased from Merck KGaA (Darmstadt, Germany). The activity of compound 1 and 8 was measured in the presence of p-tyramine (200 μM). […] Firstly, inhibitors’ activity was measured in a concentration of 1 μM. […] For compounds that inhibited the enzyme by more than 50% further studies were conducted to obtain IC50 from concentration–response curves. All calculations were made in Microsoft Excel and GraphPadPrism software. All experiments were performed in duplicate and data are expressed as mean ± SEM."}, "[6]": {"test": "oxygen radical absorbance capacity fluorescent (ORAC-FL) assay", "conditions": "Trolox equivalent, calculated at 5 µM of compounds and Trolox", "procedure": "The ORAC-FL was performed according to procedure described in the literature. The reagents used in this assay, TX, fluorescein and 2,2′-azobis(2-amidinopropane) dihydrochloride (AAPH), were purchased from Sigma-Aldrich, Inc., St. Louis, MO, USA. The prepared ORAC-FL reagent consisted of 0.3 μM of fluorescein and 100 µM of AAPH dissolved in PBS buffer. The compounds and the reference antioxidant TX were tested at the concentration 2.5 µM and the results were compared to the blank in which no antioxidant was present. The assays were performed in black 96-well plates. The fluorescence readings were taken by a microplate reader EnSpire (PerkinElmer, Waltham, MA, USA) every minute for a duration of 240 min. The excitation wavelength was 485 nm and the emission wavelength was 520 nm. The area under the fluorescence decay curve (AUC) was calculated next by GraphPad Prism™ software (version 5.01, San Diego, CA, USA). All measurements were performed in triplicate. The TX equivalent (TE) was calculated next using the following Equation (1):TE = [(AUCsample − AUCblank)/(AUCTX − AUCblank)] × [CTX/Csample](1)"}, "[7]": {"molecular_target": "native AMPA receptors", "conditions": "native AMPA receptors, rat brain membranes, mean of three experiments, cited from earlier work"}, "[8]": {"test_system": "IMR-32 neuroblastoma cells", "test": "cell viability, MTS assay", "assay_type": "cell-based, human", "conditions": "IMR-32, 24 h incubation, 1–100 µM", "procedure": "as §1\n(§3) The CellTiter 96® AQueous Non-Radioactive Cell Proliferation Assay was purchased from Promega (Madison, WI, USA). After 24 h of cells incubation with compound 1 or 8 in the concentrations range 1–100 µM the MTS-based labeling mixture was added to each well and cells were incubated under the same conditions for 2–3 h. The absorbance was measured using a microplate reader EnSpire (PerkinElmer, Waltham, MA, USA) at 490 nm. All measurements were performed in triplicate and results are shown as mean ± SD. • Lactate Dehydrogenase Test"}, "[9]": {"test_system": "SH-SY5Y neuroblastoma cells", "test": "cell viability, MTS assay", "assay_type": "cell-based, human", "conditions": "24 h incubation, 1–100 µM", "procedure": "as §1, §3"}}}
{"compound": "Nc1c(Cl)cc(CC(N)C(=O)O)cc1-c1ccc(O)cc1", "note": "(centres unmarked) [Compound 8]", "values": [{"measurement": "6-OHDA-induced release of LDH (neuroprotection)", "setting": "[1]", "result": "no statistically significant neuroprotective effect"}, {"measurement": "6-OHDA-induced release of LDH (neuroprotection)", "setting": "[2]; 100 µM 6-OHDA", "result": "neuroprotective effect was not observed"}, {"measurement": "6-OHDA-induced release of LDH (neuroprotection)", "setting": "[2]; 1 h pretreatment, 50 µM 6-OHDA, 24 h", "result": "no statistically significant neuroprotective effect"}, {"measurement": "FRAP (%AAA)", "setting": "[3]", "result": 48.19, "unit": "%AAA"}, {"measurement": "intracellular ROS level", "setting": "[4]", "result": "statistically significant decrease"}, {"measurement": "MAO-B inhibition, screening", "setting": "[5]", "result": "No inhibitory activity"}, {"measurement": "ORAC (TE)", "setting": "[6]", "result": 7.56, "unit": "TE"}, {"measurement": "[3H]AMPA Ki", "setting": "[7]", "result": "lack of detectable AMPA receptor affinity"}, {"measurement": "Ki", "setting": "[7]; read-out: [3H]AMPA Ki", "result": "> 100", "unit": "µM"}, {"measurement": "cell viability", "setting": "[8]", "result": "no influence on cell viability"}, {"measurement": "cell viability", "setting": "[9]", "result": "no influence on cell viability"}]}
